# Test results: patent US8481501B2 (priority 2004, dated 2013)
# Read-outs that look alike come from different tables or passages of the source.
# Experiments:
# delta opioid receptor [1] = biological target: T1, delta opioid receptor (Homo sapiens, UniProt P41143); experiment: biochemical; type: binding; parameters: expressed in transfected cells; host or cells: transfected cells
# kappa opioid receptor [2] = biological target: T2, kappa opioid receptor (Homo sapiens, UniProt P41145); experiment: Ke at kappa, CHO membranes; type: biochemical; parameters: expressed in transfected cells; host or cells: CHO; conditions: Table 7, CHO membranes
# adult male rats = experiment: Precipitation of somatic signs of withdrawal after acute morphine; type: in vivo, rat; conditions: s.c., 4 hr after morphine 5.0 mg/kg
# kappa opioid receptor [3] = biological target: T2, kappa opioid receptor; experiment: biochemical; type: binding; parameters: expressed in transfected cells; host or cells: transfected cells
# delta opioid receptor [4] = biological target: T1, delta opioid receptor; experiment: Stimulation of [35S]GTPγS binding (coupling to G proteins); type: biochemical; parameters: expressed in transfected cells; host or cells: transfected cells
# kappa opioid receptor [5] = biological target: T2, kappa opioid receptor; experiment: biochemical; type: biochemical; parameters: expressed in transfected cells; host or cells: transfected cells; conditions: for Emax / EC50: Table 8; for Emax: read-out: kappa % stimulation; for EC50: read-out: kappa EC50
# kappa opioid receptor [6] = biological target: T2, kappa opioid receptor; parameters: expressed in transfected cells; host or cells: transfected cells; conditions: read-out: Ki κ; Table 5; data taken from MacDougall et al.; cited from earlier work
# [7] = Chemical stability at pH 2.0 and pH 7.4, HPLC
# Text: The chemical stability of selected compounds were examined at pH 7.4 and pH 2.0. […] Then HPLC was used to analyze the decomposition of the starting material.
# heroin-dependent rats = experiment: Heroin self-administration in heroin-dependent rats; type: in vivo, rat; conditions: s.c. 15 mins prior to dark phase; doses 13e 0.04, 13g 0.2, M6G 0.04, 13h 0.01, 0.04, 0.2 mg/kg
# delta opioid receptor [8] = biological target: T1, delta opioid receptor; parameters: expressed in transfected cells; host or cells: transfected cells; conditions: Table 6, data from reference 6, cited from earlier work
# [9] = Penson et al.; cited from earlier work
# [10] = Metabolic stability in mouse liver microsomes; conditions: 1.2 mg/mL MLM, 0.1 mM compound
# [11] = Metabolic stability in human liver pooled S9; conditions: 3.2 mg/mL HLS9, 0.1 mM compound
# delta opioid receptor [12] = biological target: T1, delta opioid receptor; parameters: expressed in transfected cells; host or cells: transfected cells; conditions: read-out: Ki δ; Table 5; data taken from MacDougall et al.; cited from earlier work
# delta opioid receptor [13] = biological target: T1, delta opioid receptor; experiment: Ke at delta, CHO membranes; type: biochemical; parameters: expressed in transfected cells; host or cells: CHO; conditions: Table 7, CHO membranes
# [14] = Table 7, CHO membranes, read-out: Ki delta
# [15] = Table 7, CHO membranes, read-out: Ki kappa
# T1 sequence (P41143 whole entry): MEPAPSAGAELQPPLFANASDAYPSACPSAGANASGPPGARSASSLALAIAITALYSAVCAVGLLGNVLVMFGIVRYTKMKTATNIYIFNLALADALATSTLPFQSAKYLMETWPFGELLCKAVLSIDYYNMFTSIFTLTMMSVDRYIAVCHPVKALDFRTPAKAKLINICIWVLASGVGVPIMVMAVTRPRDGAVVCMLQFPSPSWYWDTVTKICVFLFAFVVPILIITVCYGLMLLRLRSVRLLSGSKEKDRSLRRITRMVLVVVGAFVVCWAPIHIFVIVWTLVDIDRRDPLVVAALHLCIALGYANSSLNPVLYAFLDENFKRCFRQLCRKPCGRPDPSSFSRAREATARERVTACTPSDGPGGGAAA
# T2 sequence (P41145 whole entry): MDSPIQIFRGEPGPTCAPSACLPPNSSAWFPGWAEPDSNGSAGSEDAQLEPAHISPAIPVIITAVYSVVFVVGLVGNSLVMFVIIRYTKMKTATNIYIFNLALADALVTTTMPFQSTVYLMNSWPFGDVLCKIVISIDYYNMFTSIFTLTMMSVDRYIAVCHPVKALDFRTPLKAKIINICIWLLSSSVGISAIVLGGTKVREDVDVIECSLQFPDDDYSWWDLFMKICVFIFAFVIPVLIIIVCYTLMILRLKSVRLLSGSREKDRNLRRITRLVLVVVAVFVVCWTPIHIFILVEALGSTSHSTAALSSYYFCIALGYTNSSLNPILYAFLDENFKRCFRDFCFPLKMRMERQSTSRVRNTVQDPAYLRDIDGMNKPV
smiles,measurement,setting,value
"O=C(CC1OC(CO)C(O)C(O)C1O)NC1CCC2(O)C3Cc4ccc(O)c5c4C2(CCN3CC2CC2)C1O5 (centres unmarked) [6a, 14-Hydroxy-17-(cyclopropylmethyl)nordesmorphine-6-acetamidoglucose]",Ki delta,"delta opioid receptor [1]; Table 7, CHO membranes",moderate affinity
same,Ki,delta opioid receptor [1]; [14],91.3 ± 3.8 nM
same,Ke(other) (kappa),kappa opioid receptor [2],13.39 ± 1.51
same,approximate EC50 for precipitation of somatic signs of withdrawal,adult male rats,approximately 1 mg/kg
same,Ki kappa,"kappa opioid receptor [3]; Table 7, CHO membranes",moderate affinity
same,Ki,kappa opioid receptor [3]; [15],10.4 ± 2.8 nM
same,Emax,delta opioid receptor [4]; Table 8,43.1%
same,EC50,"delta opioid receptor [4]; Table 8, read-out: delta EC50",90.9 nM
same,agonist/antagonist character at the delta receptor,delta opioid receptor [4]; based on [35S]GTPγS binding,partial agonist
same,Emax,kappa opioid receptor [5],11%
same,EC50,kappa opioid receptor [5],11.2 nM
same,agonist/antagonist character at the kappa receptor,kappa opioid receptor [5]; based on [35S]GTPγS binding,strong antagonist
"CN1CCC23c4c5ccc(O)c4OC2C(OC2O[C@H](C(=O)O)[C@@H](O)[C@H](O)[C@H]2O)C=CC3C1C5 (some centres unmarked) [M6G, Morphine-6-glucuronide, reference compound]",Ki,kappa opioid receptor [6],4060 ± 230 nM
same,Ki,"delta opioid receptor [1]; Table 1, read-out: Ki δ",161 ± 0.73 nM
same,pH 2.0 t 1/2,[7]; pH 2.0,stable
same,pH 7.4 t 1/2,[7]; pH 7.4,stable
same,Ki,"kappa opioid receptor [3]; Table 1, read-out: Ki κ",4060 ± 230 nM
same,Emax,delta opioid receptor [4]; Table 2,80%
same,delta % stimulation,delta opioid receptor [4]; Table 8,80.0 ± 1.0%
same,EC50,"delta opioid receptor [4]; delta EC50, Table 2",190 ± 22.9 nM
same,EC50,"delta opioid receptor [4]; delta EC50, Table 8",190 ± 22.9 nM
same,effect on heroin self-administration,heroin-dependent rats,effective at reducing heroin self-administration
same,δ Emax,delta opioid receptor [8],80.0 ± 1.0
same,EC50,delta opioid receptor [8]; read-out: δ EC50,190 ± 20 nM
same,oral bioavailability,[9],11%
same,MLM t 1/2,[10],stable
same,HLS9 t 1/2,[11],stable
same,EC50,kappa opioid receptor [5],> 10000 nM
same,Ki,delta opioid receptor [12],170 ± 1 nM
"O=C(C[C@@H]1O[C@H](COCc2ccccc2)[C@@H](OCc2ccccc2)[C@H](OCc2ccccc2)[C@H]1OCc1ccccc1)NC1CC[C@@]2(O)[C@H]3Cc4ccc(O)c5c4[C@@]2(CCN3CC2CC2)[C@H]1O5 (stereo partly drawn) [compound 5, 6-acetamido-2,3,4,6-tetra-O-benzyl-D-glucopyranosyl-14-Hydroxy-17-(cyclopropylmethyl)nordesmorphine]",Ke(other) (delta),delta opioid receptor [13],10.35 ± 2.01
same,Ki delta,"delta opioid receptor [1]; Table 7, CHO membranes",low affinity
same,Ki,delta opioid receptor [1]; [14],140 ± 13.9 nM
same,Ki kappa,"kappa opioid receptor [3]; Table 7, CHO membranes",moderate affinity
same,Ki,kappa opioid receptor [3]; [15],39 ± 6.3 nM
same,Emax,delta opioid receptor [4]; Table 8,20.5%
same,EC50,"delta opioid receptor [4]; Table 8, read-out: delta EC50",107 nM
same,Emax,kappa opioid receptor [5],45.5%
same,EC50,kappa opioid receptor [5],10.8 nM
